# Measurements from patent US20030114469A1, “Combinations” (priority 2001, published 2003).
# Target: T1, human PDE5, partially purified from human platelets (Homo sapiens, UniProt O76074)
# T1 construct: human PDE5, partially purified from human platelets; from tissue; host or cells: human platelets
# Assay: PDE5 Assay (SPA, 3H-cGMP)
# Assay type: biochemical
# Conditions: not given
# Method: 10 μL of each of these solutions is transferred to a selected well of a 96-well Optiplate microtitre plate (e.g., Packard). To determine total binding, 10 μL of aqueous 20% v/v DMSO is added to other selected wells. To determine non-specific binding, a 10 mM solution of sildenafil in 100% DMSO is diluted 20-fold with aqueous 20% v/v DMSO and 10 μL of the resulting solution is added to further selected wells of the Optiplate plate. […] (The PDE Assay Buffer is prepared by dissolving Tris-base (7.56 g) in water (800 mL), adding 1 M aqueous MgCl2 (10.325 mL) and 0.5 M EDTA (4.25 mL), adjusting the pH to 7.5 with 1N hydrochloric acid and making up to 1 L with water). A solution of human PDE5, partially purified from human platelets (11 μL, containing 0.017 units of PDE5 per mL, where 1 unit hydrolyses 1.0 μmole of 3′,5′-cyclic GMP to 5′-GMP per minute at pH 7.5 at 37° C.), in 20 mM Hepes, pH 7.4, 100 mM sodium chloride, 10% v/v glycerol, 1 mM benzamidine and 2 mM dithiotherietol, is diluted 200-fold, with Enzyme Buffer prepared by adding 0.5 M EDTA (2 mL) to a solution of Tris-Base (1.21 g) in water (800 mL), adjusting the pH to 7.5 with 1N HCl and making up to 1 L with water. The diluted PDE5 solution (10 μL) is added to all wells containing test compound, aqueous DMSO or sildenafil solution. The plate is incubated at room temperature for 1 hour. Fifty (50) μL of a suspension of 500 mg PDE Yttrium silicate SPA beads (e.g., Amersham) in 28 mL water is added to each of the wells and the plate is incubated for a further 20 minutes and then sealed using Top Seal-S (e.g., Packard) according to the manufacturer's instructions. The resulting scintillations are counted using a Canberra Packard Top Count (1 minute per well), as a measure of the extent to which binding of PDE5 to the beads is inhibited.
row,Structure (SMILES),IC50 [nM]
1,"COc1cc2c(Cc3nc4c([nH]3)c(=O)n(C)c(=O)n4CC(C)C)cnc(C)c2cc1OC [Example 7, 8-(6,7-dimethoxy-1-methyl-isoquinolin-4-ylmethyl)-3-isobutyl-1-methyl-3,7-dihydro-purine-2,6-dione]",7
2,"COc1cc2cncc(Cc3nc4c([nH]3)c(=O)n(C)c(=O)n4CC(C)C)c2cc1OC [Example 10, 8-(6,7-dimethoxy-isoquinolin-4-ylmethyl)-3-isobutyl-1-methyl-3,7-dihydro-purine-2,6-dione]",10
3,COc1cc2cncc(Cc3nc4c([nH]3)c(=O)n(C)c(=O)n4CC(C)(C)C)c2cc1OC [Example 15],6
4,"COc1ccc2cncc(Cc3nc4c([nH]3)c(=O)n(C)c(=O)n4CC(C)C)c2c1 [Example 45, 3-isobutyl-8-(6-methoxy-isoquinolin-4-ylmethyl)-1-methyl-3,7-dihydro-purine-2,6-dione]",2
5,"COc1cc2cncc(Cc3nc4c([nH]3)c(=O)n(C)c(=O)n4CC(C)CO)c2cc1OC (stereo not shown) [Example 68, 8-(6,7-dimethoxy-isoquinolin-4-ylmethyl)-3-(3-hydroxy-2-methyl-propyl)-1-methyl-3,7-dihydro-purine-2,6-dione]",7

# Same assay, conditions: human platelet PDE5, 3H-cGMP, room temperature 1 hour, yttrium silicate SPA beads; read-out: IC50 (concentration of test compound at which 50% inhibition of PDE5 binding to the beads occurs)
row,Structure (SMILES),IC50 [nM]
1,"COc1cc2c(Cc3nc4c([nH]3)c(=O)n(C)c(=O)n4CC(C)C)cnc(Cl)c2cc1OC [Example 35, 8-(1-chloro-6,7-dimethoxy-isoquinolin-4-ylmethyl)-3-isobutyl-1-methyl-3,7-dihydro-purine-2,6-dione]",10
2,COc1ccc2cncc(Cc3nc4c([nH]3)c(=O)n(C)c(=O)n4CC3CC3)c2c1 [Example 49],3.7
3,"C#Cc1ccc2cncc(Cc3nc4c([nH]3)c(=O)n(C)c(=O)n4CC(C)C)c2c1 [Example 55, 8-(6-ethynyl-isoquinolin-4-ylmethyl)-3-isobutyl-1-methyl-3,7-dihydro-purine-2,6-dione]",5.5
4,COc1cc2cncc(Cc3nc4c([nH]3)c(=O)n(C)c(=O)n4Cc3ccc(NS(=O)(=O)N(C)C)cc3)c2cc1OC [Example 60],2.8
5,"COc1cc2cncc(Cc3nc4c(=O)n(C)c(=O)n(CC5(C)CC5)c4[nH]3)c2cc1OC [Example 70, 8-(6,7-dimethoxy-isoquinolin-4-ylmethyl)-1-methyl-3-(1-methyl-cyclopropylmethyl)-3,9-dihydro-purine-2,6-dione]",9
